Laboratory results reported in PubChem BioAssay AID2060625 (Molecular Pharmacology Branch, DTP, NCI, 2025).

Each compound was assayed on 186277-243-T-J2-PDC spheroids with HUVEC/MSC, viability (assay: Anticancer human tumor 186277-243-T-J2-PDC patient-derived colon adenocarcinoma cell line growth inhibition [CLK]). Settings: second compound 3.16 µM; first compound 0.0316 µM; hits give low values.
How it was run: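 Patient-derived tumor cells grown as complex spheroids with HUVEC endothelial cells and mesenchymal stem cells, treated with drug combinations. Concentrations descend in half-log steps from near clinical Cmax, or from 10 microM if Cmax unknown.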
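Further: compound exposure lasted seven days before readout; 100% = DMSO vehicle control wells.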

SMILES | viability, T/C [%]
Cn1ncnc1[C@H]1c2n[nH]c(=O)c3cc(F)cc(c23)N[C@@H]1c1ccc(F)cc1 + CN1CCN(c2cc(C(=O)Nc3cc4cc(-c5cnn(C)c5)ccc4cn3)ccn2)CC1 | 2.26
CC(Nc1ccc2c(c1)OCCn1cc(N3C(=O)OCC3C(F)F)nc1-2)C(N)=O (configuration not stated) + CNC(=O)c1ccc(Nc2nc(OC3CCCC3)c3c(-c4ccc5nc(C)oc5c4)c[nH]c3n2)c(OC)c1 | 20.8

Same assay, conditions: second compound 3.16 µM; first compound 0.1 µM; hits give low values

SMILES | viability, T/C [%]
Nc1ccn(C2OC(CO)C(O)C2(F)F)c(=O)n1 (configuration not stated) + CNC(=O)c1ccc(Nc2nc(OC3CCCC3)c3c(-c4ccc5nc(C)oc5c4)c[nH]c3n2)c(OC)c1 | 7.49
O=c1[nH]cc(F)c(=O)[nH]1 + CNC(=O)c1ccc(Nc2nc(OC3CCCC3)c3c(-c4ccc5nc(C)oc5c4)c[nH]c3n2)c(OC)c1 | 26.9
Nc1ccccc1NC(=O)c1ccc(CNC(=O)OCc2cccnc2)cc1 + CNC(=O)c1ccc(Nc2nc(OC3CCCC3)c3c(-c4ccc5nc(C)oc5c4)c[nH]c3n2)c(OC)c1 | 38.2
Cn1ncnc1[C@H]1c2n[nH]c(=O)c3cc(F)cc(c23)N[C@@H]1c1ccc(F)cc1 + CN1CCN(c2cc(C(=O)Nc3cc4cc(-c5cnn(C)c5)ccc4cn3)ccn2)CC1 | 0.62
CC(Nc1ccc2c(c1)OCCn1cc(N3C(=O)OCC3C(F)F)nc1-2)C(N)=O (configuration not stated) + CNC(=O)c1ccc(Nc2nc(OC3CCCC3)c3c(-c4ccc5nc(C)oc5c4)c[nH]c3n2)c(OC)c1 | 15

Same assay, conditions: second compound 3.16 µM; first compound 0.316 µM; hits give low values

SMILES | viability, T/C [%]
Nc1ccn(C2OC(CO)C(O)C2(F)F)c(=O)n1 (configuration not stated) + CNC(=O)c1ccc(Nc2nc(OC3CCCC3)c3c(-c4ccc5nc(C)oc5c4)c[nH]c3n2)c(OC)c1 | 7.26
O=c1[nH]cc(F)c(=O)[nH]1 + CNC(=O)c1ccc(Nc2nc(OC3CCCC3)c3c(-c4ccc5nc(C)oc5c4)c[nH]c3n2)c(OC)c1 | 24.8
Nc1ccccc1NC(=O)c1ccc(CNC(=O)OCc2cccnc2)cc1 + CNC(=O)c1ccc(Nc2nc(OC3CCCC3)c3c(-c4ccc5nc(C)oc5c4)c[nH]c3n2)c(OC)c1 | 39
CC(Nc1ccc2c(c1)OCCn1cc(N3C(=O)OCC3C(F)F)nc1-2)C(N)=O (configuration not stated) + CNC(=O)c1ccc(Nc2nc(OC3CCCC3)c3c(-c4ccc5nc(C)oc5c4)c[nH]c3n2)c(OC)c1 | 11.1

Same assay, conditions: second compound 3.16 µM; first compound 1 µM; hits give low values

SMILES | viability, T/C [%]
Nc1ccn(C2OC(CO)C(O)C2(F)F)c(=O)n1 (configuration not stated) + CNC(=O)c1ccc(Nc2nc(OC3CCCC3)c3c(-c4ccc5nc(C)oc5c4)c[nH]c3n2)c(OC)c1 | 8.76
O=c1[nH]cc(F)c(=O)[nH]1 + CNC(=O)c1ccc(Nc2nc(OC3CCCC3)c3c(-c4ccc5nc(C)oc5c4)c[nH]c3n2)c(OC)c1 | 28.3
Nc1ccccc1NC(=O)c1ccc(CNC(=O)OCc2cccnc2)cc1 + CNC(=O)c1ccc(Nc2nc(OC3CCCC3)c3c(-c4ccc5nc(C)oc5c4)c[nH]c3n2)c(OC)c1 | 41.2
CC(Nc1ccc2c(c1)OCCn1cc(N3C(=O)OCC3C(F)F)nc1-2)C(N)=O (configuration not stated) + CNC(=O)c1ccc(Nc2nc(OC3CCCC3)c3c(-c4ccc5nc(C)oc5c4)c[nH]c3n2)c(OC)c1 | 10.6

Same assay, conditions: second compound 3.16 µM; first compound 3.16 µM; hits give low values

SMILES | viability, T/C [%]
Nc1ccn(C2OC(CO)C(O)C2(F)F)c(=O)n1 (configuration not stated) + CNC(=O)c1ccc(Nc2nc(OC3CCCC3)c3c(-c4ccc5nc(C)oc5c4)c[nH]c3n2)c(OC)c1 | 6.3
O=c1[nH]cc(F)c(=O)[nH]1 + CNC(=O)c1ccc(Nc2nc(OC3CCCC3)c3c(-c4ccc5nc(C)oc5c4)c[nH]c3n2)c(OC)c1 | 24.4
Nc1ccccc1NC(=O)c1ccc(CNC(=O)OCc2cccnc2)cc1 + CNC(=O)c1ccc(Nc2nc(OC3CCCC3)c3c(-c4ccc5nc(C)oc5c4)c[nH]c3n2)c(OC)c1 | 9.98
CC(Nc1ccc2c(c1)OCCn1cc(N3C(=O)OCC3C(F)F)nc1-2)C(N)=O (configuration not stated) + CNC(=O)c1ccc(Nc2nc(OC3CCCC3)c3c(-c4ccc5nc(C)oc5c4)c[nH]c3n2)c(OC)c1 | 7.84

Same assay, conditions: second compound 3.16 µM; first compound 10 µM; hits give low values

SMILES | viability, T/C [%]
Nc1ccn(C2OC(CO)C(O)C2(F)F)c(=O)n1 (configuration not stated) + CNC(=O)c1ccc(Nc2nc(OC3CCCC3)c3c(-c4ccc5nc(C)oc5c4)c[nH]c3n2)c(OC)c1 | 6.38
O=c1[nH]cc(F)c(=O)[nH]1 + CNC(=O)c1ccc(Nc2nc(OC3CCCC3)c3c(-c4ccc5nc(C)oc5c4)c[nH]c3n2)c(OC)c1 | 12.1
Nc1ccccc1NC(=O)c1ccc(CNC(=O)OCc2cccnc2)cc1 + CNC(=O)c1ccc(Nc2nc(OC3CCCC3)c3c(-c4ccc5nc(C)oc5c4)c[nH]c3n2)c(OC)c1 | 1.71
CC(Nc1ccc2c(c1)OCCn1cc(N3C(=O)OCC3C(F)F)nc1-2)C(N)=O (configuration not stated) + CNC(=O)c1ccc(Nc2nc(OC3CCCC3)c3c(-c4ccc5nc(C)oc5c4)c[nH]c3n2)c(OC)c1 | 5.24

Same assay, conditions: second compound 10 µM; first compound 0.000316 µM; hits give low values

SMILES | viability, T/C [%]
Cn1ncnc1[C@H]1c2n[nH]c(=O)c3cc(F)cc(c23)N[C@@H]1c1ccc(F)cc1 + CN1CCN(c2cc(C(=O)Nc3cc4cc(-c5cnn(C)c5)ccc4cn3)ccn2)CC1 | 1.78

Same assay, conditions: second compound 10 µM; first compound 0.001 µM; hits give low values

SMILES | viability, T/C [%]
Cn1ncnc1[C@H]1c2n[nH]c(=O)c3cc(F)cc(c23)N[C@@H]1c1ccc(F)cc1 + CN1CCN(c2cc(C(=O)Nc3cc4cc(-c5cnn(C)c5)ccc4cn3)ccn2)CC1 | 0.48

Same assay, conditions: second compound 10 µM; first compound 0.00316 µM; hits give low values

SMILES | viability, T/C [%]
Cn1ncnc1[C@H]1c2n[nH]c(=O)c3cc(F)cc(c23)N[C@@H]1c1ccc(F)cc1 + CN1CCN(c2cc(C(=O)Nc3cc4cc(-c5cnn(C)c5)ccc4cn3)ccn2)CC1 | 0.42

Same assay, conditions: second compound 10 µM; first compound 0.01 µM; hits give low values

SMILES | viability, T/C [%]
Cn1ncnc1[C@H]1c2n[nH]c(=O)c3cc(F)cc(c23)N[C@@H]1c1ccc(F)cc1 + CN1CCN(c2cc(C(=O)Nc3cc4cc(-c5cnn(C)c5)ccc4cn3)ccn2)CC1 | 0.58
